Row | SMILES | pKa (acidic group) | pKa (basic group)
1 | CSc1ncnc2[nH]ncc12 | 9.65 | 1
2 | CCCCCC(=O)CC(C)=O | 9.2 | –
3 | Nc1nc2nc[nH]c2c([O-])[nH+]1 | 9.39 | –
4 | Cc1cc(O)n(-c2ccccc2)n1 | 11.3 | 1.07
5 | Cc1cc(O)c(C(C)C)cc1C | 10.8 | –
6 | C/C(=C\c1cc(C(C)(C)C)c(O)c(C(C)(C)C)c1)C(=O)[O-] | 11.5 | –
7 | CCN1CCCCC1C (stereo unspecified) | – | 10.7
8 | Cc1cc(-c2cc(C)n(C)[nH+]2)nn1C | – | -0.6
9 | C[C@@H]1CCCC[C@@H]1C(=O)O | 5.04 | –
10 | Cc1c(C(=O)O)cccc1[N+](=O)[O-] | 2.98 | –
11 | Cc1cc([N+](=O)[O-])ccc1O | 7.1 | –
12 | Cn1/c(=N\N)sc2ccccc21 | – | 6.1
13 | CC(=O)N1CS(=O)C[C@H]1C(=O)O (stereo partly specified) | 2.5 | –
14 | [NH3+]/N=C/c1ncnc2nc[nH]c12 | – | 2.8
15 | O=[N+]([O-])c1cc(O)ccc1O | 7.42 | –
16 | O=CNOC(=O)/C=C/c1ccccc1 | 5.9 | –
17 | Cc1cc([O-])[nH+]c([S-])n1 | – | 7.73
18 | O=C(NO)c1ccccc1 | 8.71 | –
19 | C=CCC(C)(CN(CC)CC)OC(=O)CC(C)C (stereo unspecified) | – | 8.1
20 | CC1(C)CC(=O)C2=C(C1)NC1=C(C2)C(=O)CC(C)(C)C1 | 3.6 | –
21 | Oc1ccccc1C1=[NH+]CCN1 | 6.63 | –
22 | S=C(Nc1ccc(Cl)cc1)c1ccc(Cl)cc1 | 10.2 | –
23 | O=C1CN(C(=O)c2ccccc2)C(=S)N1 | 6.5 | -6.6

Row | SMILES | pKa (acidic group) | pKa (basic group)
24 | Cc1c(Cn2ccnc2)sc2cc(C(=O)[O-])ccc12 | – | 6.04
25 | CCc1cc(C)cc(O)c1 | 10.1 | –
26 | O=C(O)c1ccc[nH]1 | 4.35 | -0.65
27 | S=C(Nc1ccc(Cl)c(Cl)c1)c1cccc(Br)c1 | 9.26 | –
28 | COc1cc(/C=N/c2ncc3nc[nH]c3n2)ccc1O | 8.91 | 2.79
29 | CCCc1c(O)n[nH]c1C | – | 2.8
30 | c1ccc(-c2c[nH]c(-c3ccccc3)n2)cc1 | 12.6 | –
31 | CNCCCCc1ccccc1 | – | 10.8
32 | Cc1c(I)cccc1C(=O)O | 3.26 | –
33 | C=Cc1c(C)c2cc3[nH+]c(c(CC(=O)OC)c4[nH]c(cc5nc(cc1[nH]2)C(C)=C5CC)c(C)c4C(=O)NCC)[C@@H](CCC(=O)OC)[C@@H]3C | – | 0
34 | O=C(NO)c1cccc([N+](=O)[O-])c1 | 8.07 | –
35 | Cc1cc(O)n(-c2nc(O)c(C)c(C)[nH+]2)n1 | 5.5 | –
36 | NC(=O)CN(CC[NH+](CC(N)=O)Cc1ccccc1O)Cc1ccccc1O | – | 1.89
37 | Oc1ccccc1C1CCNCCNCCCNCCN1 (stereo unspecified) | 10.8 | –
38 | C=CCc1ccc(O)c(OC)c1 | 10 | –
39 | CCc1ccc(C(=O)/C=C/C(=O)O)cc1 | 3.38 | –
40 | CC(O)[C@@H]1CN[C@H](C(=O)[O-])[C@H]1CC(=O)[O-] (stereo partly specified) | – | 10.1
41 | CN(C)CC(C)(C)CN | – | 10.1
42 | NNCCc1ccccc1 | – | 7.25
43 | Cc1ccc(C)c(C(=N)c2ccccc2)c1 | – | 6.79
44 | CCCSCCN | – | 9.43
45 | Cc1cc(=O)oc2cc(O)c(Cl)cc12 | 6.1 | –
46 | Cc1nc(N(C)C)nc(OC(=O)N(C)C)c1C | – | 4.53

Row | SMILES | pKa (acidic group) | pKa (basic group)
47 | CCOCCn1c(CN2CCC[NH+](CCCCn3cc(C(=O)[O-])cn3)CC2)nc2ccccc21 | – | 4.8
48 | CC(Cl)C(=O)O (stereo unspecified) | 2.88 | –
49 | O=S1(=O)N=CNc2ccncc21 | 6.71 | –
50 | N#CC(C#N)=NNc1ccc(CCCl)cc1 | 6.5 | -0.81
51 | COc1ccc(CN)cc1OC | – | 9.39
52 | NC(=O)c1cncc2ccccc12 | – | 3.8
53 | CC(C)C[C@H]([NH3+])C(=O)N[C@@H](Cc1c[nH]cn1)C(=O)[O-] | – | 6.69
54 | O=C1CC(c2ccccc2)NC(=O)N1 (stereo unspecified) | 11.2 | –
55 | CN=C(N(C)C)N(C)C | – | 13.8
56 | CCCCNCCC#N | – | 8.3
57 | [O-]c1nncc2ccccc12 | – | 12
58 | Nc1nc(N)c2[nH]c(N)[nH+]c2n1 | – | 2.41
59 | c1cncc(-c2[nH]c3ccccc3[nH+]2)c1 | – | 1.56
60 | O=c1cccccc1O | 6.87 | –
61 | Cc1nc2cc(N)ccc2n1C | – | 7
62 | COC(=O)c1ccncc1 | – | 3.38
63 | O=C(O)c1csc(Br)c1 | 3.7 | –
64 | COc1ccc(CC(C(C)=O)C(C)=O)cc1 | 10.6 | –
65 | Cc1nnc2c(c1C)CCC2 | – | 5.36
66 | COc1cccnn1 | – | 2.52
67 | [O-]c1ccncc1 | – | 11.1
68 | C[C@H]1CC[C@@H]2CCCN21 | – | 11.7
69 | CCC1C(=O)COC1=O (stereo unspecified) | 4.29 | –

Row | SMILES | pKa (acidic group) | pKa (basic group)
70 | COc1ccc2c3c1O[C@H]1CCC[C@H]4[C@H](NCC[C@]314)[C@H]2O | – | 8.72
71 | O=C(O)CCCCc1ccccc1 | 4.88 | –
72 | CC(O)[C@@H]1C[C@H](CC(=O)O)C1(C)C (stereo partly specified) | 4.83 | –
73 | CCOCCn1c(N2CCC[NH+](CCCCn3cc(C(=O)[O-])cn3)CC2)nc2ccccc21 | – | 5.1
74 | C=C[C@H]1C[NH+]2CC[C@@H]1C[C@H]2[C@H](O)c1ccnc2ccc(OC)cc12 | – | 4.22
75 | CCOC(=O)c1cccnc1 | – | 3.2
76 | O=C(O)C(CO)[NH2+]Cc1ccccc1O (stereo unspecified) | 2.1 | –
77 | CCCCCCC(=O)O | 4.86 | –
78 | CCc1nnc(CC)n1N | 9.77 | –
79 | NC1=NS(=O)(=O)[N-]c2nc[nH]c21 | 12.2 | –
80 | CCOC(=O)CCCN | – | 9.71
81 | C[NH+](C)CCCCCNC(=O)/C=N/O | 8.88 | –
82 | NC(=S)C([NH3+])Cc1ccccc1 (stereo unspecified) | – | -8.63
83 | CC(=O)c1ccc(F)cc1 | 18.5 | –
84 | [O-]c1ccccc1C1=NCCN1 | – | 12.6
85 | NCCCCc1cccnc1 | – | 10.2
86 | CCN(CC)c1nc(N)nc(N)n1 | – | 5.61
87 | OCc1cccc(O)c1 | 9.83 | –
88 | C[C@H](CCCNCc1ccccc1)[C@H]1CC[C@H]2[C@@H]3[C@H](O)C[C@@H]4C[C@H](O)CC[C@]4(C)[C@H]3CC[C@]12C | – | 9.07
89 | O=C(O)c1ccc(I)o1 | 2.94 | –
90 | CCOC(=O)/C=C(/C)O | 9.51 | –
91 | Cc1[nH]c(C)c(C)c1C | – | 3.77
92 | Oc1nc([S-])nc2nc[nH]c12 | 10.3 | –

Row | SMILES | pKa (acidic group) | pKa (basic group)
93 | CCSc1nccc(O)[n+]1C | 0.9 | –
94 | Nc1ccc2c(c1)Cc1c(F)cccc1-2 | – | 3.54
95 | N#Cc1c[nH+]c2ccccc2c1O | -2.08 | –
96 | O=[N+]([O-])/C=C/c1ccc(O)cc1 | 7.98 | –
97 | Cc1ccc(I)cc1C(=O)O | 3.62 | –
98 | Cc1c2ccncc2cc2c1[nH]c1cc[nH+]cc12 | – | 5.3
99 | c1ccc2[nH]c(-c3ccncc3)nc2c1 | – | 10.8
100 | CCCCNc1nnc(-c2ccccc2)cc1C | – | 6.1
101 | Cn1c(N)nc2nc[nH]c2c1=O | 10.4 | 3.2
102 | [S-]c1ccnc2ccccc12 | – | 8.83
103 | CC1(C)CCC(=O)N1O | 8.7 | –
104 | O=C(O)[C@@H]1CC[C@H](C(=O)O)C1 | 4.24 | –
105 | O=S(=O)([O-])c1ccc(O)c2cn[nH]c12 | 7.6 | –
106 | [O-]c1nc(O)nn1-c1ccccc1 | 12.2 | –
107 | COC(=O)C(N)Cc1c[nH]cn1 (stereo unspecified) | – | 7.35
108 | O=C(O)Cc1ccco1 | 3.72 | –
109 | CCc1cccc2ccc(O)cc12 | 9.54 | –
110 | Sc1cccnc1 | 7.01 | 2.28
111 | Cc1cc(Nc2ccc([O-])cc2)cc(C)c1O | 10.9 | –
112 | Nc1ccc(-c2nnn[nH]2)cc1 | 4.55 | –
113 | C[n+]1cccc(C(=O)O)c1 | 2.29 | –
114 | CCCCN(C(=O)c1cc([N+](=O)[O-])ccc1O)c1ccc(/N=N/c2ccc3c(c2)OCCOCCOCCOCCOCCO3)cc1 | 6.3 | –
115 | N[C@@H]1CCCC[C@@H]1O | – | 9.72

Row | SMILES | pKa (acidic group) | pKa (basic group)
116 | Cn1cnc2cnc([O-])nc21 | – | 9.19
117 | COc1ccc(S(=O)(=O)NCCN2CCOCC2)c(OC)c1OC | – | 6.16
118 | O=C(O)CC(c1[nH]cc[nH+]1)c1[nH]cc[nH+]1 | 2.79 | –
119 | NS(=O)(=O)c1ccc(P(=O)([O-])[O-])cc1 | 10 | –
120 | O=Cc1cc(Cl)ccc1O | 7.4 | –
121 | N#C[C@H]1CCCC[C@@H]1C(=O)O | 3.86 | –
122 | Cc1c(O)cccc1C(=O)O | 3.83 | –
123 | CN(C)c1ccc(N=O)cc1 | – | 4.54
124 | Sc1ccc2ncccc2c1 | 6.5 | –
125 | Nc1ccc2cncnc2c1 | – | 4.6
126 | CCCCc1c(O)nc(NCC)[nH+]c1C | 5.04 | –
127 | CCCCCCCCCC(=O)O | 4.89 | –
128 | Cc1cc(O)ccc1[N+](=O)[O-] | 7.65 | –
129 | O=c1cc(-c2ccc(O)cc2)oc2ccccc12 | 8.27 | –
130 | CCCCCCN(CC(C)O)CC(O)CC (stereo unspecified) | – | 8.9
131 | Cc1cc(S(=O)(=O)N(CCO)CCO)cc(C)c1O | 8.25 | –
132 | Cn1c2c(s/c1=N\N)CCCC2 | – | 8.2
133 | CC[C@H](C(=O)[O-])[C@H](CO)Cc1cncn1C | – | 7.47
134 | Oc1ccccc1CN1CCCC1 | 10.8 | 8.81
135 | CC(N)C(N)=O (stereo unspecified) | 8.02 | –
136 | Nc1ncc2ccccc2n1 | – | 4.8
137 | NC(=O)c1ccncc1 | 10.5 | 3.57
138 | CC(CC(C#N)(c1ccccc1)c1ccccc1)N1CCOCC1 (stereo unspecified) | – | 6.1

Row | SMILES | pKa (acidic group) | pKa (basic group)
139 | COc1ccc2c(c1O)-c1c3c(cc4c1[C@H](C2)N(C)CC4)OCO3 | 10.1 | –
140 | O=Cc1ncnc2nc[nH]c12 | 8.8 | 2.4
141 | CC[NH+](CC)CCNc1nc(C)nc(Nc2ccc(Cl)cc2)n1 | – | 4.02
142 | CN1[C@@H]2CC[C@H]1C[C@H](O)C2 | – | 10.3
143 | Clc1ccccn1 | – | 0.72
144 | Cc1cccc(C)c1N | – | 3.84
145 | N[C@@H](Cc1c[nH]cn1)C(=O)N[C@@H](Cc1c[nH]cn1)C(=O)[O-] | – | 7.8
146 | C[C@@H]1C[NH2+][C@@H](C)CN1 | – | 5.29
147 | C[NH+](C)CCCNc1ccnc2cc([N+](=O)[O-])ccc12 | – | 6.77
148 | O=C(O)c1ccc(Cl)cc1Cl | 2.74 | –
149 | c1ccc2c(c1)CNCCCNCc1ccccc1OCCCO2 | – | 10
150 | CC(=O)c1ccc([N+](=O)[O-])cc1C(=O)O | 3.27 | –
151 | OCC(Cl)Cl | 13.2 | –
152 | O=c1cc(-c2ccccc2)oc2ccc(O)cc12 | 9.09 | –
153 | O=C([O-])[C@H](NCC[NH2+][C@@H](C(=O)[O-])c1ccccc1O)c1ccccc1O | 8.79 | 6.33
154 | Cc1ccc([N+](=O)[O-])cc1/C(=N/CCC[NH+](C)C)c1ccccc1 | – | 3.14
155 | Nc1ncnc2c1ncn2CCOCP(=O)([O-])O | 7 | 4.18
156 | Cn1cnc2c1NC=NS2(=O)=O | 4.45 | –
157 | Nc1nnc(S(N)(=O)=O)s1 | 7.69 | –
158 | [NH3+]c1ccc(/C=N/NC(=O)c2ccncc2)cc1 | – | 3.2

Source: the pKa sets of Baltruschat and Czodrowski (2020)
